Test results reported in PubChem BioAssay AID200 (DTP/NCI, 2004).
Where “and” joins values, the source holds several entries; their conditions need not be identical. Identical values can stand only once. Toxic doses and inconclusive results are not listed. Where a SMILES comes first, the peptide text is derived from it. The star is where a group is joined. Cbz = O=C(OCc1ccccc1)*

System: B6C3F1 mice, B16 melanoma ip, median survival T/C
Test: NCI In Vivo Anticancer Drug Screen. Data for tumor model B16 Melanoma (intraperitoneal) in B6C3F1 mice
Conditions: endpoint: median survival time, higher = longer survival
Method in brief: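 Tumor-bearing mice received test compound; a separate group got vehicle only. Survival was then compared, with results reported as treated over control.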

[1] = dose: 1.5 mg/kg/injection, schedule: Q01DX009 (ip), vehicle: saline
[2] = dose: 3.0 mg/kg/injection, schedule: Q01DX009 (ip), vehicle: saline
[3] = dose: 12.5 mg/kg/injection, schedule: Q01DX009 (ip), vehicle: saline
[4] = dose: 3.0 mg/kg/injection, schedule: Q01DX009 (ip), vehicle: saline with Tween-80
[5] = dose: 6.0 mg/kg/injection, schedule: Q01DX009 (ip), vehicle: saline with Tween-80
[6] = dose: 100.0 mg/kg/injection, schedule: Q01DX009 (ip), vehicle: Klucel (hydroxypropylcellulose) (HPC)
[7] = dose: 200.0 mg/kg/injection, schedule: Q01DX009 (ip), vehicle: Klucel (hydroxypropylcellulose) (HPC)
[8] = dose: 400.0 mg/kg/injection, schedule: Q01DX009 (ip), vehicle: Klucel (hydroxypropylcellulose) (HPC)
[9] = dose: 10.0 mg/kg/injection, schedule: Q01DX009 (ip), vehicle: Klucel (hydroxypropylcellulose) (HPC)
[10] = dose: 100.0 mg/kg/injection, schedule: Q01DX009 (ip), vehicle: saline

In the case of CC1(C)N=C(N)N=C(N)N1c1ccc(F)c(C(F)(F)F)c1, the T/C (dose: 0.37 mg/kg/injection, schedule: Q01DX009 (ip), vehicle: saline) is reported as 93 % of control, the T/C (dose: 0.75 mg/kg/injection, schedule: Q01DX009 (ip), vehicle: saline) is reported as 96 % of control and the T/C [1] is reported as 94 % of control. For the same compound, the T/C [2] was 99 % of control, the T/C (dose: 6.0 mg/kg/injection, schedule: Q01DX009 (ip), vehicle: saline) was 106 % of control and the T/C (dose: 12.0 mg/kg/injection, schedule: Q01DX009 (ip), vehicle: saline) was 113 % of control. For the same compound, the T/C [3] was 120 % of control.

For Cc1cnc(/C=N\NC(N)=S)c2cccc(N)c12, the T/C [4] was 108 % of control and the T/C [5] was 116 % of control.

For CN(C)N=Nc1ccnc2ccc(Br)cc12, the T/C (dose: 3.13 mg/kg/injection, schedule: Q01DX009 (ip), vehicle: other) was 109 % of control, the T/C (dose: 6.25 mg/kg/injection, schedule: Q01DX009 (ip), vehicle: other) was 114 % of control and the T/C (dose: 12.5 mg/kg/injection, schedule: Q01DX009 (ip), vehicle: other) was 110 % of control. The T/C (dose: 25.0 mg/kg/injection, schedule: Q01DX009 (ip), vehicle: other) was 114 % of control and the T/C (dose: 50.0 mg/kg/injection, schedule: Q01DX009 (ip), vehicle: other) was 115 % of control.

CC(NC(=O)OCc1ccccc1)C(=O)NC(Cc1c[nH]c2ccccc12)C(=O)O (centres undefined) was tested, and the T/C [6] was 95 % of control, the T/C [7] was 100 % of control and the T/C [8] was 89 % of control.

COc1cc2cc3c(c(O)c2c(O)c1/C=C/C(C)C)C(=O)CC(C)(OC(C)=O)C3 (centres undefined) was tested, and the T/C (dose: 0.62 mg/kg/injection, schedule: Q01DX009 (ip), vehicle: Klucel (hydroxypropylcellulose) (HPC)) was 98 % of control, the T/C (dose: 0.63 mg/kg/injection, schedule: Q01DX009 (ip), vehicle: Klucel (hydroxypropylcellulose) (HPC)) was 104 % of control and the T/C (dose: 1.25 mg/kg/injection, schedule: Q01DX009 (ip), vehicle: Klucel (hydroxypropylcellulose) (HPC)) was 109 % of control and 112 % of control. For the same compound, the T/C (dose: 2.5 mg/kg/injection, schedule: Q01DX009 (ip), vehicle: Klucel (hydroxypropylcellulose) (HPC)) was 115 % of control and 122 % of control and the T/C [9] was 100 % of control.

For Cn1c(N)c(N=Nc2ccccc2Cl)c(=O)n(C)c1=O, the T/C (dose: 6.25 mg/kg/injection, schedule: Q01DX009 (ip), vehicle: saline with Tween-80) was 92 % of control, the T/C (dose: 12.5 mg/kg/injection, schedule: Q01DX009 (ip), vehicle: saline with Tween-80) was 101 % of control and the T/C (dose: 25.0 mg/kg/injection, schedule: Q01DX009 (ip), vehicle: saline with Tween-80) was 89 % of control. The T/C (dose: 50.0 mg/kg/injection, schedule: Q01DX009 (ip), vehicle: saline with Tween-80) was 92 % of control and 104 % of control and the T/C (dose: 100.0 mg/kg/injection, schedule: Q01DX009 (ip), vehicle: saline with Tween-80) was 104 % of control.

For CC(C)[C@](O)(C(=O)OCC1=CCN2CC[C@@H](O)[C@@H]12)[C@H](C)O, the T/C (dose: 25.0 mg/kg/injection, schedule: Q01DX009 (ip), vehicle: water) was 107 % of control, the T/C (dose: 50.0 mg/kg/injection, schedule: Q01DX009 (ip), vehicle: water) was 111 % of control and 116 % of control and the T/C (dose: 100.0 mg/kg/injection, schedule: Q01DX009 (ip), vehicle: water) was 111 % of control. The T/C (dose: 200.0 mg/kg/injection, schedule: Q01DX009 (ip), vehicle: water) was 117 % of control.

With CC(C)N1C(=O)N(Cl)C2C1N(Cl)C(=O)N2Cl (centres undefined) the T/C (dose: 1.5 mg/kg/injection, schedule: Q01DX009 (ip), vehicle: saline with Tween-80) was 108 % of control, the T/C [4] was 104 % of control and the T/C [5] was 98 % of control. The T/C (dose: 12.0 mg/kg/injection, schedule: Q01DX009 (ip), vehicle: saline with Tween-80) was 94 % of control and the T/C (dose: 24.0 mg/kg/injection, schedule: Q01DX009 (ip), vehicle: saline with Tween-80) was 108 % of control.

In the case of CC1(C)COCN1COCCOCN1COCC1(C)C, the T/C (dose: 6.25 mg/kg/injection, schedule: Q01DX009 (ip), vehicle: saline) is reported as 94 % of control, the T/C [3] is reported as 96 % of control and the T/C (dose: 25.0 mg/kg/injection, schedule: Q01DX009 (ip), vehicle: saline) is reported as 101 % of control. For the same compound, the T/C (dose: 50.0 mg/kg/injection, schedule: Q01DX009 (ip), vehicle: saline) was 115 % of control and the T/C [10] was 113 % of control.

With C[CH2][Pb]([CH2]C)([CH2]C)[O]C(=O)COc1ccccc1 the T/C (dose: 0.38 mg/kg/injection, schedule: Q01DX009 (ip), vehicle: Klucel (hydroxypropylcellulose) (HPC)) was 94 % of control, the T/C (dose: 0.75 mg/kg/injection, schedule: Q01DX009 (ip), vehicle: Klucel (hydroxypropylcellulose) (HPC)) was 105 % of control and the T/C (dose: 1.5 mg/kg/injection, schedule: Q01DX009 (ip), vehicle: Klucel (hydroxypropylcellulose) (HPC)) was 101 % of control. The T/C (dose: 3.0 mg/kg/injection, schedule: Q01DX009 (ip), vehicle: Klucel (hydroxypropylcellulose) (HPC)) was 91 % of control and the T/C (dose: 6.0 mg/kg/injection, schedule: Q01DX009 (ip), vehicle: Klucel (hydroxypropylcellulose) (HPC)) was 97 % of control.

In the case of CC(C)=CCN1C(=O)c2ccccc2C1=O, the T/C [10] is reported as 104 % of control, the T/C (dose: 200.0 mg/kg/injection, schedule: Q01DX009 (ip), vehicle: saline) is reported as 102 % of control and the T/C (dose: 400.0 mg/kg/injection, schedule: Q01DX009 (ip), vehicle: saline) is reported as 94 % of control.

For CC[PH+](CC)CC[S-].CC[PH+](CC)CC[S-].[Au+].[Au+], the T/C (dose: 5.0 mg/kg/injection, schedule: Q01DX009 (ip), vehicle: Klucel (hydroxypropylcellulose) (HPC)) was 94 % of control, the T/C [9] was 97 % of control and the T/C (dose: 20.0 mg/kg/injection, schedule: Q01DX009 (ip), vehicle: Klucel (hydroxypropylcellulose) (HPC)) was 97 % of control. For the same compound, the T/C (dose: 40.0 mg/kg/injection, schedule: Q01DX009 (ip), vehicle: Klucel (hydroxypropylcellulose) (HPC)) was 95 % of control.

For CNC(=S)N/N=C(/C)CCc1c(C)nn(C(=S)NC)c1C, the T/C (dose: 12.5 mg/kg/injection, schedule: Q01DX009 (ip), vehicle: Klucel (hydroxypropylcellulose) (HPC)) was 103 % of control, the T/C (dose: 25.0 mg/kg/injection, schedule: Q01DX009 (ip), vehicle: Klucel (hydroxypropylcellulose) (HPC)) was 106 % of control and the T/C (dose: 50.0 mg/kg/injection, schedule: Q01DX009 (ip), vehicle: Klucel (hydroxypropylcellulose) (HPC)) was 102 % of control.

In the case of CN(C)[C@@H]1C(=O)C(C(=O)NCN2CCN(C(=N)N=C(N)N)CC2)=C(O)[C@@]2(O)C(=O)C3=C(O)c4c(O)cccc4[C@@](C)(O)[C@H]3C[C@@H]12, the T/C (dose: 0.31 mg/kg/injection, schedule: Q01DX009 (ip), vehicle: saline) is reported as 94 % of control, the T/C (dose: 0.62 mg/kg/injection, schedule: Q01DX009 (ip), vehicle: saline) is reported as 98 % of control and the T/C (dose: 1.25 mg/kg/injection, schedule: Q01DX009 (ip), vehicle: saline) is reported as 111 % of control and 103 % of control. For the same compound, the T/C (dose: 2.5 mg/kg/injection, schedule: Q01DX009 (ip), vehicle: saline) was 90 % of control and 103 % of control and the T/C (dose: 5.0 mg/kg/injection, schedule: Q01DX009 (ip), vehicle: saline) was 101 % of control and 103 % of control.

O=C(NC(Cc1cnc[nH]1)C(=O)NC(Cc1ccc(O)cc1)C(=O)O)OCc1ccccc1 (stereo not drawn) (Cbz-His-Tyr-OH; configuration not given here) was tested, and the T/C [6] was 102 % of control, the T/C [7] was 103 % of control and the T/C [8] was 110 % of control.

For CC(=O)[C@]1(O)Cc2c(O)c3c(c(O)c2[C@@H](OC2CC(N)C(O)C(C)O2)C1)C(=O)c1c(O)cccc1C3=O (some centres undefined), the T/C (dose: 0.38 mg/kg/injection, schedule: Q01DX001 (ip), vehicle: water) was 150 % of control.

O=CC(O)C(O)C(O)C(O)C(=O)O.[NH-]C1CCCCC1[NH-].[Pt+2] (centres undefined) was tested, and the T/C (dose: 0.19 mg/kg/injection, schedule: Q01DX009 (ip), vehicle: saline) was 108 % of control, the T/C [1] was 177 % of control and the T/C [2] was 187 % of control.

For COc1cc2oc3c(C)c(=O)cc4oc(-c5ccccc5)cc(c2c2c1CCC(c1ccccc1)O2)c43 (centres undefined), the T/C (dose: 0.85 mg/kg/injection, schedule: Q01DX009 (ip), vehicle: Klucel (hydroxypropylcellulose) (HPC)) was 105 % of control, the T/C (dose: 1.75 mg/kg/injection, schedule: Q01DX009 (ip), vehicle: Klucel (hydroxypropylcellulose) (HPC)) was 101 % of control and the T/C (dose: 3.5 mg/kg/injection, schedule: Q01DX009 (ip), vehicle: Klucel (hydroxypropylcellulose) (HPC)) was 103 % of control. The T/C (dose: 7.0 mg/kg/injection, schedule: Q01DX009 (ip), vehicle: Klucel (hydroxypropylcellulose) (HPC)) was 95 % of control and 106 % of control, the T/C (dose: 14.0 mg/kg/injection, schedule: Q01DX009 (ip), vehicle: Klucel (hydroxypropylcellulose) (HPC)) was 97 % of control and 104 % of control and the T/C (dose: 28.0 mg/kg/injection, schedule: Q01DX009 (ip), vehicle: Klucel (hydroxypropylcellulose) (HPC)) was 121 % of control.
